Reference: patent publication US20260250322A1, “NEW PEPTIDES AS SELECTIVE IL-23 RECEPTOR INHIBITORS” (SANOFI, priority 2023, published 2026)
Bridge positions count the residues as written; N and C are the ends. Square brackets hold non-standard residues; d marks the D form. Peptide text beside a SMILES is read from it. 1Nal = N[C@@H](Cc1cccc2ccccc12)C(=O)O; 2Nal = N[C@@H](Cc1ccc2ccccc2c1)C(=O)O; Cit = NC(=O)NCCC[C@H](N)C(=O)O; Orn = NCCC[C@H](N)C(=O)O; Aib = CC(C)(N)C(=O)O

Legend:
[1] = Protease stability in simulated intestinal fluids (FaSSIF); assay type: in vitro ADME; conditions: 37° C.; for FaSSIF 0 (min), remaining percentage of peptide compound: 0 min (set to 100%), 1 μM; for remaining at 1 h, 1 μM / remaining at 4 h, 1 μM / remaining at 2 h, 1 μM: simulated intestinal fluid (FaSSIF), protease stability; for remaining at 1 h, 1 μM: 60 min, read-out: FaSSIF 60 (min), remaining percentage of peptide compound; for remaining at 4 h, 1 μM: 240 min, read-out: FaSSIF 240 (min), remaining percentage of peptide compound; for remaining at 2 h, 1 μM: 120 min, read-out: FaSSIF 120 (min), remaining percentage of peptide compound
Protocol: Studies were carried out in simulated intestinal fluid (SIF) and simulated gastric fluid (SGF) to evaluate gastric stability of the peptide compounds of the disclosure. […]
Similarly, the term “Pancreatin-SIF” refers to a solution of simulated intestinal fluid containing pancreatin whereas “SIF-media” refers to a solution of simulated intestinal fluid without pancreatin. Pancreatin-SIF was prepared by dissolving 1 mg Pancreatin (MP Biomedicals) in 10 mL SIF media concentrate (ProSense). […]
To 76 μL of the Pepsin-SGF buffer, 4 μL of the 20 µM compound stock solution were added and incubated at 37° C. At each timepoint (0, 60, 120 and 240 minutes) the reaction was quenched with addition of 80 μL Ethanol (0.1% HCOOH). The samples were centrifuged for 20 minutes and an aliquot of the supernatant 100 μL were transferred to a LoBind-MTP plate and analyzed by LCMS/MS. The peak area response was calculated at each time point for each test compound. As internal reference, the peak area response of the same test compound at TO was calculated. The percent remaining at each timepoint was calculated based on the peak area response ratio of the test compound at TO. Time 0 was set to 100%, and all later timepoints were calculated relative to time 0.

human IL-23R = target: T1, human IL-23R (Homo sapiens, UniProt Q5VWK5); test: Human ELISA IL-23/IL-23R binding inhibition; conditions: human IL-23 coated, recombinant human IL-23R-Fc chimera
T1 sequence (Q5VWK5 24-355 limits assumed): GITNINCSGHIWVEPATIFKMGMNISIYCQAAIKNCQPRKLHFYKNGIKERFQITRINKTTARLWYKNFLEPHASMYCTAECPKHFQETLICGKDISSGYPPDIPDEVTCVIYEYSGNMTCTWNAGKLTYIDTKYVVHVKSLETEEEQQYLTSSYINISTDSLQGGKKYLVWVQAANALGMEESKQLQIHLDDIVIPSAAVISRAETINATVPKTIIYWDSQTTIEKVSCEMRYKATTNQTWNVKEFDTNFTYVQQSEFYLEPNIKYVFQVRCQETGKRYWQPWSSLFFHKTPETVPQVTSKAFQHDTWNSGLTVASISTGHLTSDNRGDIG
How it was run: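 Plates coated with human IL-23 at 1 μg/ml overnight at 4° C; serially diluted peptides added with recombinant human IL-23R-Fc at 0.1 μg/ml final, 60 min at RT. Bound receptor detected with anti-human IgG1-HRP and a fluorogenic peroxidase substrate.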

[2] = test system: IL-23 induced STAT3 signaling; test: Inhibition of IL-23 induced STAT3 signaling in HEK-Blue IL-23 cells (SEAP reporter); assay type: cell-based; conditions: human IL-23 0.25 ng/ml, read-out: Inhibition of IL-23 induced pSTAT3 (IC50 nM)
How it was run: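 HEK-Blue IL-23 cells (10,000/well) preincubated 60 min at 37 °C with serially diluted compound, then stimulated overnight with human IL-23 (0.25 ng/ml final). STAT3-driven SEAP in supernatant read with QUANTI-Blue after 45 min at room temperature, OD 620-655 nm; dose-response fitted.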

Row | FaSSIF 0 (min), remaining percentage of peptide compound [1] [%] | remaining at 1 h, 1 μM [1] [%] | remaining at 4 h, 1 μM [1] [%] | IC50 (human IL-23R) [nM] | IC50 [2] [nM] | remaining at 2 h, 1 μM [1] [%] | Structure (SMILES)
1 | 100 | 8 | 11 | 11.7 | 10000 | – | COc1ccc(C[C@@H]2NC(=O)[C@H](CCCNC(=N)N)NC(=O)[C@H](CCC(N)=O)NC(=O)[C@H](Cc3c[nH]c4ccccc34)NC(=O)[C@H]([C@@H](C)O)NC(=O)[C@H](CC(N)=O)NC(=O)[C@H](NC(C)=O)CCCCNC(=O)C[C@@H](C(=O)N[C@@H](CC(N)=O)C(=O)N[C@@H](CC(N)=O)C(N)=O)NC(=O)[C@H](CCCNC(N)=O)NC(=O)[C@H](Cc3cccc4ccccc34)NC2=O)cc1 [compound 18] (Ac-[dK]NTWQRY(Me)[1Nal][Cit]DNN-NH2; lactam 1-10)
2 | 100 | 96 | 95 | 16.9 | 7500 | 98 | COc1ccc(C[C@@H]2NC(=O)C(C)(C)NC(=O)[C@H](CCC(N)=O)NC(=O)[C@H](Cc3c[nH]c4ccccc34)NC(=O)[C@H]([C@@H](C)O)NC(=O)[C@H](CC(N)=O)NC(=O)[C@H](NC(C)=O)CCCCNC(=O)C[C@@H](C(=O)N[C@@H](CC(N)=O)C(=O)N[C@@H](CC(N)=O)C(N)=O)NC(=O)C(C)(C)NC(=O)[C@H](Cc3cccc4ccccc34)NC2=O)cc1 [compound 21] (Ac-[dK]NTWQ[Aib]Y(Me)[1Nal][Aib]DNN-NH2; lactam 1-10)
3 | 100 | 4 | 2 | – | 9280 | 7 | COc1ccc(C[C@@H]2NC(=O)[C@H](CCCNC(=N)N)NC(=O)[C@H](CCC(N)=O)NC(=O)[C@H](Cc3c[nH]c4ccccc34)NC(=O)[C@H]([C@@H](C)O)NC(=O)[C@H](CC(N)=O)NC(=O)[C@H](NC(C)=O)CCC(=O)NCCCC[C@@H](C(=O)N[C@@H](CC(N)=O)C(=O)N[C@@H](CC(N)=O)C(N)=O)NC(=O)C(C)(C)NC(=O)[C@H](Cc3cccc4ccccc34)NC2=O)cc1 [compound 11] (Ac-[dE]NTWQRY(Me)[1Nal][Aib]KNN-NH2; lactam 1-10)
4 | 100 | 2 | 3 | 6.24 | 1150 | 0 | COc1ccc(C[C@@H]2NC(=O)[C@H](CCCNC(=N)N)NC(=O)[C@H](CCC(N)=O)NC(=O)[C@H](Cc3c[nH]c4ccccc34)NC(=O)[C@H]([C@@H](C)O)NC(=O)[C@H](CC(N)=O)NC(=O)[C@H](NC(C)=O)CC(=O)NCCC[C@@H](C(=O)N[C@@H](CC(N)=O)C(=O)N[C@@H](CC(N)=O)C(N)=O)NC(=O)C(C)(C)NC(=O)[C@H](Cc3ccc4ccccc4c3)NC2=O)cc1 [compound 13] (Ac-[dD]NTWQRY(Me)[2Nal][Aib][Orn]NN-NH2; lactam 1-10)
